According to US9789096B2, “Methods and compositions for selective and targeted cancer therapy” (Board of Regents of the University of Texas System, priority 2013, dated 2017):
Like-named read-outs stand apart in the source and are kept apart here.

Columns and labels:
H2122 = assay: Cell viability dose-response, H2122; type: cell-based, human
Protocol: (§1) FIG. 6A. […] Cell viability is plotted vs. compound concentration. Compound was added to cells plated at 15% confluence in 96-well plates in RPMI-1640 media supplemented with 5% Fetal Bovine Serum and 2 mM L-Glutamine. After 4 days of incubation, ATP levels were measured using Cell Titer Glo (Promega). Data are presented as the average of 2 replicates ±SEM.
(§2) Selectivity may be measured by the half maximal inhibitory concentration (IC50), which, as used herein, is a measure of the effectiveness of a compound in killing cells. This quantitative measure indicates how much of a particular compound is needed to kill a particular cell population by half (e.g., as indicated by the amount of ATP). […] The IC50 can be determined by constructing a dose-response curve. The lower the IC50, the higher the potency, and the greater the difference between IC50 values for different cell lines (e.g., sensitive lines vs. insensitive lines, and sensitive lines vs. normal lines) the greater the selectivity. […]
(§3) With this information, we synthesized and tested a series of small molecules derived in conception from the oxalamide and chromone scaffold including N-acyl ureas, as shown in Tables 6-8. Each compound was tested in a 12-point dose-response study starting at 50 micromolar and decreasing in 3-fold increments to sub-nanomolar concentrations, in duplicate. Additionally, one or more additional cell line was tested in the same way.

H1819 = assay: Cell viability dose-response, H1819; type: cell-based, human
Protocol: as §1, §2, §3

[1] = Homo sapiens, NCI-H2122, 12-point dose-response starting at 50 micromolar, 3-fold increments, in duplicate, read-out: toxicity data, H2122
[2] = Homo sapiens, NCI-H1819, 12-point dose-response starting at 50 micromolar, 3-fold increments, in duplicate, read-out: toxicity data, H1819
[3] = 12-point dose-response starting at 50 micromolar, 3-fold increments, in duplicate, read-out: toxicity data, H2122
[4] = 12-point dose-response starting at 50 micromolar, 3-fold increments, in duplicate, read-out: toxicity data, H1819
[5] = Homo sapiens, NCI-H2122, Tables 3 and 4, read-out: IC50 (uM) vs indicated non-small cell lung cancer cell line H2122
[6] = Homo sapiens, NCI-H2122, Table 9, competitor, read-out: IC50 to H2122 cells

| SMILES | IC50 (H2122; [1]) [µM] | IC50 (H1819; [2]) [µM] | further results |
| --- | --- | --- | --- |
| COc1ccc(CCNC(=O)C(=O)Nc2cccc(F)c2)cc1 [SW2068S9-1-A] | 2.26 | ≥ 49.5 |  |
| COc1ccc(CCNC(=O)C(=O)Nc2ccc(Cl)cc2)cc1 [SW027951-2-A] |  |  | IC50 (H2122; [3]): 0.28 µM; IC50 (H1819; [4]): ≥ 49.5 µM |
| COc1ccc(CCNC(=O)C(=O)Nc2cccc(Br)c2)cc1 [SW027952-2-A] |  | ≥ 49.5 | IC50 (H2122; [3]): 3.1 µM |
| COc1ccc(CCNC(=O)C(=O)Nc2ccccc2OC)cc1 [SW027954-2-A] | ≥ 49.5 | ≥ 49.5 |  |
| COc1ccc(CCNC(=O)C(=O)Nc2ccccc2F)cc1 [SW027962-2-A] | ≥ 49.5 | ≥ 49.5 |  |
| O=C(NCCc1ccccc1)C(=O)Nc1ccc(Cl)cc1 [SW113361-2-A] | ≥ 49.5 | ≥ 49.5 |  |
| COc1ccc(NC(=O)Nc2ccc(OC)cc2)cc1 [SW113878-2-A] | ≥ 49.5 | ≥ 49.5 |  |
| COc1ccc2nc(NS(=O)(=O)c3ccc4c(c3)OCCO4)sc2c1 [SW202748] |  |  | IC50 (H1819; Homo sapiens, NCI-H1819, Tables 3 and 4, read-out: IC50 (uM) vs indicated non-small cell lung cancer cell line H1819): 69 µM |
| C#CCOc1ccc2nc(NC(=O)c3ccc(C(=O)c4ccccc4)cc3)sc2c1 [SW202868] |  |  | IC50 (H2122; [5]): 0.005 µM |
| COc1ccc2nc(NC(=O)c3ccc(C(=O)N4CCN(C)CC4)cc3)sc2c1 [SW203669] |  |  | IC50 (H2122; [5]): ≥ 49.5 µM |
| COc1ccc2nc(NC(=O)c3ccc(Nc4ccccc4)cc3)sc2c1 [SW203670] |  |  | IC50 (H2122; [5]): 0.108 µM |
| COc1ccc(Nc2ccc(C(=O)Nc3nc4ccc(OC)cc4s3)cc2)cc1 [SW203671] |  |  | IC50 (H2122; [5]): 0.314 µM |
| COc1ccc2nc(NC(=O)c3ccc(C(O)c4ccccn4)cc3)sc2c1 (centres unmarked) [SW203726] |  |  | IC50 (H2122; [5]): 0.029 µM |
| COc1ccc2nc(NC(=O)c3ccc(C(=O)c4ccccn4)cc3)sc2c1 [SW203727] |  |  | IC50 (H2122; [5]): 0.016 µM |
| COc1ccc2nc(NC(=O)c3ccc(N=[N+]=[N-])cc3)sc2c1 [SW203728] |  |  | IC50 (H2122; [5]): 0.12 µM |
| COc1ccc2nc(NC(=O)c3ccc(C(=O)N4CCCCC4)cc3)sc2c1 [SW203730] |  |  | IC50 (H2122; [5]): 0.845 µM |
| COc1ccc2nc(NC(=O)c3ccc(C(=O)N4CCOCC4)cc3)sc2c1 [SW203731] |  |  | IC50 (H2122; [5]): 2.28 µM |
| COc1ccc2nc(NC(=O)c3ccc(C(=O)NCc4ccccc4)cc3)sc2c1 [SW203732] |  |  | IC50 (H2122; [5]): 0.013 µM |
| COc1ccc2nc(NC(=O)c3ccc(C(=O)c4cccnc4)cc3)sc2c1 [SW203733] |  |  | IC50 (H2122; [5]): 0.017 µM |
| C#CCOCCOCCOCCOCCOc1ccc2nc(NC(=O)c3ccc(C(=O)c4ccccc4)cc3)sc2c1 [SW203734] |  |  | IC50 (H2122; [5]): 0.939 µM |
| COc1ccc2nc(NC(=O)c3ccc(C(O)c4ccncc4)cc3)sc2c1 (centres unmarked) [SW203735] |  |  | IC50 (H2122; [5]): 0.036 µM |
| COc1ccc(CCNC(=O)C(=O)Nc2ccc(F)c(Cl)c2)cc1 [SW206860-1-A] | 0.738 | ≥ 49.5 |  |
| COc1ccc(CCNC(=O)C(=O)Nc2cc(F)cc(Cl)c2)cc1 [SW206861-1-A] | ≥ 49.5 | 44.2 |  |

| SMILES | IC50 (H2122; [1]) [µM] | IC50 (H1819; [2]) [µM] | further results |
| --- | --- | --- | --- |
| COc1ccc(CCNC(=O)C(=O)Nc2cc(F)ccc2Cl)cc1 [SW206862-1-A] | ≥ 49.5 | ≥ 49.5 |  |
| COc1ccc(CCNC(=O)C(=O)Nc2ccc(F)cc2Cl)cc1 [SW206863-1-a] | ≥ 49.5 | ≥ 49.5 |  |
| COc1ccc(CCNC(=O)C(=O)Nc2cc(Cl)ccc2C)cc1 [SW206866-1-A] | ≥ 49.5 | ≥ 49.5 |  |
| COc1ccc(CCNC(=O)C(=O)Nc2cc(C)ccc2Cl)cc1 [SW206867-1-A] | ≥ 49.5 | ≥ 49.5 |  |
| COc1ccc(CCNC(=O)C(=O)Nc2c(C)cccc2Cl)cc1 [SW206868-1-A] | ≥ 49.5 | ≥ 49.5 |  |
| COc1ccc(CCNC(=O)C(=O)Nc2cc(Cl)cc(C(F)(F)F)c2)cc1 [SW206869-1-A] | ≥ 49.5 | ≥ 49.5 |  |
| COc1ccc(CCNC(=O)C(=O)Nc2cc(OC)ccc2Cl)cc1 [SW206870-1-A] | ≥ 49.5 | ≥ 49.5 |  |
| COc1ccc(CCNC(=O)C(=O)Nc2cccc(OC)c2)cc1 [SW206871-1-A] | 0.932 | ≥ 49.5 |  |
| COc1ccc(CCNC(=O)C(=O)Nc2cc(F)c(Br)c(F)c2)cc1 [SW206872-1-A] | ≥ 49.5 | ≥ 49.5 |  |
| COc1ccc(CCNC(=O)C(=O)Nc2cc(Cl)c(Br)c(Cl)c2)cc1 [SW206875-1-A] | 25.3 | 17.8 |  |
| COc1ccc(CCNC(=O)C(=O)Nc2cc(F)c(F)c(Br)c2)cc1 [SW206876-1-A] | ≥ 49.5 | ≥ 49.5 |  |
| COc1ccc(CCNC(=O)C(=O)Nc2cc(F)ccc2Br)cc1 [SW206877-1-A] | ≥ 49.5 | ≥ 49.5 |  |
| COc1ccc(CCNC(=O)C(=O)Nc2ccc(F)c(Br)c2)cc1 [SW206878-1-A] | 0.384 | ≥ 49.5 |  |
| COc1ccc(CCNC(=O)C(=O)Nc2cc(F)ccc2C)cc1 [SW206879-1-A] | ≥ 49.5 | ≥ 49.5 |  |
| COc1ccc(CCNC(=O)C(=O)Nc2ccc(C)c(F)c2)cc1 [SW206880-1-A] | 0.306 | ≥ 49.5 |  |
| COc1ccc(CCNC(=O)C(=O)Nc2cc(C)cc(F)c2)cc1 [SW206881-1-A] | 9.9 | ≥ 49.5 |  |
| COc1ccc(CCNC(=O)C(=O)Nc2cccc(F)c2C)cc1 [SW206882-1-A] | ≥ 49.5 | ≥ 49.5 |  |
| COc1ccc(CCNC(=O)C(=O)Nc2ccc(C)cc2F)cc1 [SW206883-1-A] | 0.727 | ≥ 49.5 | IC50 (H2122; [6]): 0.5 µM |
| COc1ccc(CCNC(=O)C(=O)Nc2cc(F)ccc2F)cc1 [SW206884-1-A] | ≥ 49.5 | ≥ 49.5 |  |
| COc1ccc(CCNC(=O)C(=O)Nc2c(Br)cccc2Br)cc1 [SW206887-1-A] | ≥ 49.5 | ≥ 49.5 |  |
| COc1ccc(CCNC(=O)C(=O)Nc2ccc(Br)cc2Br)cc1 [SW206888-1-A] | ≥ 49.5 | ≥ 49.5 |  |
| COc1ccc(CCNC(=O)C(=O)Nc2cc(Cl)c(F)c(Cl)c2)cc1 [SW206889-1-A] | ≥ 49.5 | ≥ 49.5 |  |
| COc1ccc(CCNC(=O)C(=O)Nc2c(Cl)cccc2Cl)cc1 [SW206890-1-A] | ≥ 49.5 | ≥ 49.5 |  |

| SMILES | IC50 (H2122; [1]) [µM] | IC50 (H1819; [2]) [µM] | further results |
| --- | --- | --- | --- |
| COc1ccc(CCNC(=O)C(=O)Nc2cc(Cl)cc(Cl)c2)cc1 [SW206891-1-A] | ≥ 49.5 | 43.8 |  |
| COc1ccc(CCNC(=O)C(=O)Nc2cc(Cl)cc(Cl)c2)cc1 [SW206891-2] |  |  | IC50 (H2122; [3]): ≥ 49.5 µM; IC50 (H1819; [4]): ≥ 49.5 µM |
| COc1ccc(CCNC(=O)C(=O)Nc2ccc(Cl)cc2C)cc1 [SW206926-1] | ≥ 49.5 | ≥ 49.5 |  |
| COc1ccc(CCNC(=O)C(=O)Nc2ccc(Cl)cc2F)cc1 [SW206951-1] | ≥ 49.5 | ≥ 49.5 |  |
| COc1ccc(CCNC(=O)C(=O)Nc2ccc(Cl)c(F)c2)cc1 [SW206952-1] | 0.294 | ≥ 49.5 |  |
| COc1ccc(CCNC(=O)C(=O)Nc2ccc(Cl)cc2Br)cc1 [SW206953-1] | ≥ 49.5 | 41.7 |  |
| COc1ccc(CCNC(=O)C(=O)Nc2ccc(Cl)c(Br)c2)cc1 [SW206954-1] | 0.871 | ≥ 49.5 |  |
| COc1ccc(CCNC(=O)C(=O)Nc2ccc(Br)c(Br)c2)cc1 [SW206955-1] | 0.421 | ≥ 49.5 |  |
| COc1ccc(CCNC(=O)C(=O)Nc2ccc(Cl)c(C#N)c2)cc1 [SW206959-1] | 0.398 | ≥ 49.5 | IC50 (H2122; [6]): 0.182 µM |
| COc1ccc(CCNC(=O)C(=O)Nc2ccc(Cl)c(Cl)c2)cc1 [SW206960-1] | 0.491 | ≥ 49.5 |  |
| COc1ccc(CCNC(=O)C(=O)Nc2ccc(F)cc2)cc1 [SW206961-1] | 0.286 | ≥ 49.5 |  |
| COc1ccc(CCNC(=O)C(=O)Nc2ccc(Cl)c(C(F)(F)F)c2)cc1 [SW206962-1] | 1.4 | ≥ 49.5 |  |
| COc1ccc(CCNC(=O)C(=O)NCCc2ccc(OC)cc2)cc1 [SW206963-1] | ≥ 49.5 | ≥ 49.5 |  |
| COc1cccc(CCNC(=O)C(=O)Nc2ccc(Cl)cc2)c1 [SW206964-1] | ≥ 49.5 | ≥ 49.5 |  |
| COc1cccc(CCNC(=O)C(=O)Nc2ccc(Cl)cc2C)c1 [SW206965-1] | ≥ 49.5 | ≥ 49.5 |  |
| COc1ccc(CCNC(=O)C(=O)Nc2ccc(C(=O)c3ccccc3)cc2)cc1 [SW206966-1] | 0.085 | ≥ 49.5 |  |
| COc1ccc(CCNC(=O)C(=O)Nc2ccccc2)cc1 [SW206967-1] | 0.456 | ≥ 49.5 |  |
| COc1ccc(CCNC(=O)C(=O)Nc2ccc(OC)cc2C)cc1 [SW206968-1] | ≥ 49.5 | ≥ 49.5 |  |
| COc1ccc(CCNC(=O)C(=O)Nc2ccc(C)c(OC)c2)cc1 [SW206969-1] | ≥ 49.5 | 49 |  |
| COc1ccc(CCNC(=O)C(=O)Nc2ccc(OC)c(C)c2)cc1 [SW206970-1] | 0.809 | ≥ 49.5 |  |
| COc1ccc2nc(NC(=O)c3ccc(C(O)c4ccccc4)cc3)sc2c1 (centres unmarked) [SW207003] |  |  | IC50 (H2122; [5]): 0.006 µM |
| C#CCOc1ccc(CCNC(=O)C(=O)Nc2ccc(C(=O)c3ccccc3)cc2)cc1 [SW207038] |  |  | IC50 (H2122; Homo sapiens, NCI-H2122, cell prints its own unit, 12-point dose-response starting at 50 micromolar, read-out: toxicity data, H2122): > 1 µM |
